Laboratory results taken from ChEMBL document CHEMBL1806482, “Flavans from Iris tenuifolia and their effects on β-amyloid aggregation and neural stem cells proliferation in vitro” (Bioorg Med Chem Lett, 2011).
Activity calls are given as the source filed them. No cut-off for these calls is given here.

How the values were obtained:
[1] = Inhibition of amyloid beta (1 to 40) aggregation after 30 mins by thioflavin T fluorescence assay
NSC = experiment: Induction of NSC proliferation assessed as ATP level; assay type: functional, cell-based

SMILES	inhibition [1] [%]	Activity (NSC)
C[C@H]1COC2=C1C(=O)C(=O)c1c2ccc2c1CCCC2(C)C	43.7	–
O=C1CC(c2cccc(O)c2O)Oc2cc3c(c(O)c21)OCO3 (stereo not given)	61.7	Active
COc1cc(OC)c2c(c1)O[C@H]1C[C@@H]2Oc2c(O)cccc21	19.8	inactive
